Laboratory results: publication PMC8270334, “Design, Sustainable Synthesis and Biological Evaluation of a Novel Dual α2A/5-HT7 Receptor Antagonist with Antidepressant-Like Properties” (Molecules, 2021)

Molecular target: T1, human 5-HT7b receptor (Homo sapiens, UniProt P34969)
T1 construct: expressed in transfected cells; host or cells: HEK293
Experiment: radioligand binding, [3H]-5-CT displacement at 5-HT7R in HEK293 cells
Settings: read-out: Ki [nM] ± SEM 5-HT7
Method: All experiments were performed using HEK293 cells stably expressing human 5-HT1A, 5-HT6, 5-HT7b, and D2L receptors or CHO-K1 cells with a plasmid containing the human 5-HT2A receptor coding sequence (PerkinElmer, Waltham, MA, USA), according to previously reported procedures. Cells were cultured in 150 cm^2 flasks and, after reaching a 90% confluence, were washed with PBS and the centrifugated (200 g) in PBS containing 0.1 mM EDTA and 1 mM dithiothreitol. Cell pellets were subsequently homogenized (in Ultra Turrax tissue homogenizer) and centrifugated twice (35,000× g for 15 min at 4 °C), with 15 min incubation at 37 °C between the centrifugations. All assays were incubated in dedicated buffers and in a total volume of 200 µL in 96-well microtitre plates for 1 h at 37 °C, except for 5-HT1AR and 5-HT2AR that was incubated for 1 h at room temperature. The process of equilibration is terminated by rapid filtration through Unifilter-96 (PerkinElmer) plates with a 96-well cell harvester and radioactivity retained on the filters was quantified on a Microbeta plate reader (PerkinElmer, USA). For displacement studies, the following assay samples containing the proper radioligand were used: 2.5 nM [^3H]-8-OH-DPAT (PerkinElmer, #NET929001MC) for 5-HT1AR; 1 nM [^3H]-ketanserin (PerkinElmer, #NET791250UC) for 5-HT2AR; 2 nM [^3H]-LSD (PerkinElmer, #NET638250UC) for 5-HT6R; and 0.8 nM [^3H]-5-CT (PerkinElmer, #NET1188U100UC) for 5-HT7R or 2.5 nM [^3H]-raclopride (PerkinElmer, #NET975001MC) for D2LR. Non-specific binding was determined using 10 μM 5-HT for 5-HT1AR and 5-HT7R, 20 μM mianserin for 5-HT2AR, 10 μM methiothepine for 5-HT6R, and 10 μM haloperidol for D2LR. […] Results were expressed as means of at least three separate experiments.

T1 sequence (P34969 1-432): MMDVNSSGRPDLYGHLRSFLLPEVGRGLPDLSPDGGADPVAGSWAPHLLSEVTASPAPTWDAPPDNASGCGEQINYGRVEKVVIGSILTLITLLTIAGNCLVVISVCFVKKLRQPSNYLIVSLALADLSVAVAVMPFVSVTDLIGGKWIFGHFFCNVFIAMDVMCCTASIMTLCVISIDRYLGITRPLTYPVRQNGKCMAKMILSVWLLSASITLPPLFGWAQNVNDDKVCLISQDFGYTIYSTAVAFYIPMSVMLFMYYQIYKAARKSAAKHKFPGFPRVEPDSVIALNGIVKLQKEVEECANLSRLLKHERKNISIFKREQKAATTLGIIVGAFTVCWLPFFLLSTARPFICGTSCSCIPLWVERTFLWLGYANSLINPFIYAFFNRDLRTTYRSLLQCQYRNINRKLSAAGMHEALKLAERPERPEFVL

In order of rising Ki:
1. CC1(C)Cc2cccc(OCCN3CCC(NS(=O)(=O)c4cccc5ccccc45)CC3)c2O1 [Compound 11, 1-Naphthalene-N-{1-[2-(2,2-dimethyl-2,3-dihydrobenzofuran-7-yloxy)ethyl]piperidin-4-yl}sulfonamide]  50 ± 16 nM
2. CC1(C)Cc2cccc(OCCN3CCC(NS(=O)(=O)c4cccc(Cl)c4)CC3)c2O1 [Compound 7, 3-Chloro-N-{1-[2-(2,2-dimethyl-2,3-dihydrobenzofuran-7-yloxy)ethyl]piperidin-4-yl}benzenesulfonamide]  64 ± 15 nM
3. CC1(C)Cc2cccc(OCCN3CCC(NS(=O)(=O)c4ccc5ccccc5c4)CC3)c2O1 [Compound 12, 2-Naphthalene-N-{1-[2-(2,2-dimethyl-2,3-dihydrobenzofuran-7-yloxy)ethyl]piperidin-4-yl}sulfonamide]  67 ± 21 nM
4. COc1ccc(Cl)cc1S(=O)(=O)NC1CCN(CCOc2cccc3c2OC(C)(C)C3)CC1 [Compound 9, 5-Chloro-2-methoxy-N-{1-[2-(2,2-dimethyl-2,3-dihydrobenzofuran-7-yloxy)ethyl]piperidin-4-yl}benzenesulfonamide]  86 ± 26 nM
5. COc1ccc(OC)c(S(=O)(=O)NC2CCN(CCOc3cccc4c3OC(C)(C)C4)CC2)c1 [Compound 10, 2,5-Dimethoxy-N-{1-[2-(2,2-dimethyl-2,3-dihydrobenzofuran-7-yloxy)ethy]piperidin-4-yl}benzenesulfonamide]  95 ± 18 nM
6. CC1(C)Cc2cccc(OCCN3CCC(CNS(=O)(=O)c4cc(Cl)ccc4F)CC3)c2O1 [Compound 16]  316 ± 73 nM
7. CC1(C)Cc2cccc(OCCN3CCC(CNS(=O)(=O)c4cccc5ccccc45)CC3)c2O1 [Compound 18, 1-Naphthalene-N-({1-[2-(2,2-dimethyl-2,3-dihydrobenzofuran-7-yloxy)ethyl]piperidin-4-yl}methyl)sulfonamide]  366 ± 69 nM
8. CC1(C)Cc2cccc(OCCN3CCC(CNS(=O)(=O)c4cncc5ccccc45)CC3)c2O1 [Compound 19, 4-Isoquinoline-N-({1-[2-(2,2-dimethyl-2,3-dihydrobenzofuran-7-yloxy)ethyl]piperidin-4-yl}methyl)sulfonamide]  387 ± 58 nM
9. COc1ccc(Cl)cc1S(=O)(=O)NCC1CCN(CCOc2cccc3c2OC(C)(C)C3)CC1 [Compound 17, 5-Chloro-2-methoxy-N-({1-[2-(2,2-dimethyl-2,3-dihydrobenzofuran-7-yloxy)ethyl]piperidin-4-yl}methyl)benzenesulfonamide]  488 ± 70 nM
10. CC1(C)Cc2cccc(OCCN3CCC(CNS(=O)(=O)c4cccc(Cl)c4)CC3)c2O1 [Compound 15, 3-Chloro-N-({1-[2-(2,2-dimethyl-2,3-dihydrobenzofuran-7-yloxy)ethyl]piperidin-4-yl}methyl)benzenesulfonamide]  664 ± 82 nM
11. CC1(C)Cc2cccc(OCCN3CCC(CNS(=O)(=O)c4ccc(F)cc4)CC3)c2O1 [Compound 14, 4-Fluoro-N-({1-[2-(2,2-dimethyl-2,3-dihydrobenzofuran-7-yloxy)ethyl]piperidin-4-yl}methyl)benzenesulfonamide]  727 ± 65 nM

Tested on: Albino Swiss mice
Experiment: forced swim test
Format: in vivo
Settings: ip, 30 min before test
Method: Adult male Albino Swiss mice (CD-1, 8 weeks old, 25–30 g: Jagiellonian University Medical College, Krakow, Poland) were used in the study. Animals were housed in groups of 8 in a transparent plastic cage (382 × 220 × 150 mm) at room temperature (22 ± 2 °C), on a 12 h light/dark cycle with ad libitum access to food and water. Mice were handled for one week before starting the experimental procedures. The separate groups of animals were used in the forced swim test and in the locomotor studies. All studies were approved by the Institutional Animal Care and Ethics Committee of the Jagiellonian University (approval no.: 80/2015). […] Tested compounds were dissolved with 1% Tween 80. […] The control animals were given ip injections of the 2% DMSO in 1% Tween 80 (vehicle). The volume of vehicle or drug solutions was 10 mL/kg. The experiment was performed on mice according to the method previously described. Mice were forced to swim individually in the glass cylinders (height 25 cm, diameter 10 cm) filled with water at 24 ± 1 °C to a depth of 10 cm and left there for 6 min. Following a 2 min habituation period, total time spent immobile was recorded over the next 4 min. The animal was regarded as immobile when it remained floating passively in the water, making only small movements to keep its head above the water.

With `CN1CCN2c3ncccc3Cc3ccccc3C2C1` (centres unmarked) [Mirtazapine, reference compound] the “active dose in FST (antidepressant-like effect)” value was 16 mg/kg.

Tested on: Albino Swiss mice
Experiment: spontaneous locomotor activity
Format: in vivo
Settings: ip, doses effective in the FST (6: 4, 8 mg/kg; mirtazapine: 16 mg/kg)
Method: Adult male Albino Swiss mice (CD-1, 8 weeks old, 25–30 g: Jagiellonian University Medical College, Krakow, Poland) were used in the study. Animals were housed in groups of 8 in a transparent plastic cage (382 × 220 × 150 mm) at room temperature (22 ± 2 °C), on a 12 h light/dark cycle with ad libitum access to food and water. Mice were handled for one week before starting the experimental procedures. The separate groups of animals were used in the forced swim test and in the locomotor studies. All studies were approved by the Institutional Animal Care and Ethics Committee of the Jagiellonian University (approval no.: 80/2015).
Tested compounds were dissolved with 1% Tween 80. […] The control animals were given ip injections of the 2% DMSO in 1% Tween 80 (vehicle). The volume of vehicle or drug solutions was 10 mL/kg.
Locomotor activity was recorded with an Opto M3 multichannel activity monitor, photoresistor actometers connected to a counter for the recording of light-beam interruptions (MultiDevice Software v1.3, Columbus Instruments, Columbus, OH, USA). The mice, after being placed into the cages individually, had their activity evaluated between the 2nd and the 6th minute. The chosen time period corresponded with the time interval considered in the FST. Spontaneous locomotor activity was evaluated as the distance travelled plus the movements of climbing by animals.

With `CN1CCN2c3ncccc3Cc3ccccc3C2C1` (centres unmarked) [Mirtazapine, reference compound] the “influence on spontaneous locomotor activity (sedation)” value was “induced sedation”.

Molecular target: T1, human 5-HT7b receptor
Experiment: not given
Settings: Figure 1, earlier lead; read-out: Ki (5-HT7R); cited from earlier work

For `CC(C)Oc1ccccc1OCCN1CCC(NS(=O)(=O)c2ccc(F)cc2)CC1` [PZ-971], the Ki is given as 21 nM.
